Assay results: the NIST ThermoML archive (doi:10.1021/je200050q)
Numbers after ± are expanded uncertainties.

Assay: activity coefficient (dimensionless); of the first substance listed, at infinite dilution; xn = mol fraction of the nth substance listed
Conditions: 101 kPa, Liquid, Chromatography, x1 = 0

activity coefficient (303.15 K) | activity coefficient (313.15 K) | activity coefficient (323.15 K) | activity coefficient (333.15 K) | activity coefficient (343.15 K) | activity coefficient (353.15 K) | activity coefficient (363.15 K) | SMILES
0.28 ± 0.028 | 0.316 ± 0.029 | 0.334 ± 0.029 | 0.39 ± 0.03 | 0.415 ± 0.03 | 0.445 ± 0.031 | 0.504 ± 0.032 | ClC(Cl)Cl [trichloromethane] + CCCCn1cc[n+](C)c1.O=[N+]([O-])[O-]
0.564 ± 0.034 | 0.543 ± 0.033 | 0.529 ± 0.033 | 0.52 ± 0.033 | 0.511 ± 0.032 | 0.508 ± 0.032 | 0.507 ± 0.032 | CCO [ethanol] + CCCCn1cc[n+](C)c1.O=[N+]([O-])[O-]
29.8 ± 1.7 | 27.6 ± 1.5 | 25.6 ± 1.4 | 23.9 ± 1.3 | 22.4 ± 1.2 | 21.1 ± 1.2 | 19.9 ± 1.1 | C1CCCCC1 [cyclohexane] + CCCCn1cc[n+](C)c1.O=[N+]([O-])[O-]
1.85 ± 0.1 | 1.88 ± 0.1 | 1.91 ± 0.1 | 1.95 ± 0.11 | 2.01 ± 0.11 | 1.99 ± 0.11 | 2.02 ± 0.11 | c1ccccc1 [benzene] + CCCCn1cc[n+](C)c1.O=[N+]([O-])[O-]
105 ± 5.9 | 97.1 ± 5.4 | 89.9 ± 5 | 83.6 ± 4.7 | 78.1 ± 4.4 | 73.2 ± 4.1 | 68.9 ± 3.8 | CCCCCCC [heptane] + CCCCn1cc[n+](C)c1.O=[N+]([O-])[O-]
63.9 ± 3.6 | 58.1 ± 3.2 | 53.1 ± 3 | 48.8 ± 2.7 | 45.1 ± 2.5 | 41.8 ± 2.3 | 39 ± 2.2 | CCCCCC [hexane] + CCCCn1cc[n+](C)c1.O=[N+]([O-])[O-]
45.3 ± 2.5 | 42.1 ± 2.4 | 39.4 ± 2.2 | 37 ± 2.1 | 34.9 ± 1.9 | 33 ± 1.8 | 31.2 ± 1.7 | CC1CCCCC1 [methylcyclohexane] + CCCCn1cc[n+](C)c1.O=[N+]([O-])[O-]
2.93 ± 0.16 | 2.98 ± 0.17 | 3.01 ± 0.17 | 3.04 ± 0.17 | 3.07 ± 0.17 | 3.18 ± 0.18 | 3.25 ± 0.18 | CCOC(C)=O [ethyl acetate] + CCCCn1cc[n+](C)c1.O=[N+]([O-])[O-]
0.6 ± 0.035 | 0.605 ± 0.035 | 0.615 ± 0.035 | 0.62 ± 0.035 | 0.626 ± 0.036 | 0.63 ± 0.036 | 0.644 ± 0.036 | CC#N [acetonitrile] + CCCCn1cc[n+](C)c1.O=[N+]([O-])[O-]
5.53 ± 0.31 | 5.55 ± 0.31 | 5.56 ± 0.31 | 5.56 ± 0.31 | 5.6 ± 0.31 | 5.59 ± 0.31 | 5.61 ± 0.31 | CCc1ccccc1 [ethylbenzene] + CCCCn1cc[n+](C)c1.O=[N+]([O-])[O-]
0.322 ± 0.029 | 0.318 ± 0.029 | 0.315 ± 0.029 | 0.31 ± 0.029 | 0.307 ± 0.029 | 0.303 ± 0.029 | 0.302 ± 0.029 | CO [methanol] + CCCCn1cc[n+](C)c1.O=[N+]([O-])[O-]
0.765 ± 0.04 | 0.732 ± 0.039 | 0.706 ± 0.038 | 0.687 ± 0.037 | 0.674 ± 0.037 | 0.662 ± 0.037 | 0.654 ± 0.036 | CCCO [propan-1-ol] + CCCCn1cc[n+](C)c1.O=[N+]([O-])[O-]
168 ± 9.4 | 154 ± 8.6 | 141 ± 7.9 | 131 ± 7.3 | 121 ± 6.8 | 113 ± 6.3 | 106 ± 5.9 | CCCCCCCC [octane] + CCCCn1cc[n+](C)c1.O=[N+]([O-])[O-]
0.464 ± 0.031 | 0.491 ± 0.032 | 0.526 ± 0.033 | 0.552 ± 0.033 | 0.579 ± 0.034 | 0.602 ± 0.035 | 0.64 ± 0.036 | ClCCl [dichloromethane] + CCCCn1cc[n+](C)c1.O=[N+]([O-])[O-]
263 ± 15 | 238 ± 13 | 218 ± 12 | 200 ± 11 | 184 ± 10 | 171 ± 9.6 | 159 ± 8.9 | CCCCCCCCC [nonane] + CCCCn1cc[n+](C)c1.O=[N+]([O-])[O-]

SMILES | activity coefficient (303.15 K) | activity coefficient (313.15 K) | activity coefficient (323.15 K) | activity coefficient (333.15 K) | activity coefficient (343.15 K) | activity coefficient (353.15 K) | activity coefficient (363.15 K)
Cc1ccccc1C [1,2-dimethylbenzene] + CCCCn1cc[n+](C)c1.O=[N+]([O-])[O-] | 4.31 ± 0.24 | 4.38 ± 0.24 | 4.44 ± 0.25 | 4.49 ± 0.25 | 4.54 ± 0.25 | 4.58 ± 0.25 | 4.63 ± 0.26
Cc1cccc(C)c1 [1,3-dimethylbenzene] + CCCCn1cc[n+](C)c1.O=[N+]([O-])[O-] | 5.42 ± 0.3 | 5.47 ± 0.3 | 5.5 ± 0.3 | 5.55 ± 0.31 | 5.57 ± 0.31 | 5.62 ± 0.31 | 5.61 ± 0.31
Cc1ccc(C)cc1 [1,4-dimethylbenzene] + CCCCn1cc[n+](C)c1.O=[N+]([O-])[O-] | 5.06 ± 0.28 | 5.17 ± 0.29 | 5.16 ± 0.29 | 5.22 ± 0.29 | 5.22 ± 0.29 | 5.24 ± 0.29 | 5.26 ± 0.29
ClC(Cl)(Cl)Cl [tetrachloromethane] + CCCCn1cc[n+](C)c1.O=[N+]([O-])[O-] | 2.09 ± 0.12 | 2.17 ± 0.12 | 2.4 ± 0.13 | 2.52 ± 0.14 | 2.65 ± 0.15 | 2.81 ± 0.15 | 2.83 ± 0.16
Cc1ccccc1 [toluene] + CCCCn1cc[n+](C)c1.O=[N+]([O-])[O-] | 3.09 ± 0.17 | 3.15 ± 0.17 | 3.19 ± 0.18 | 3.24 ± 0.18 | 3.29 ± 0.18 | 3.33 ± 0.18 | 3.37 ± 0.19
CC(C)=O [acetone] + CCCCn1cc[n+](C)c1.O=[N+]([O-])[O-] | 1.11 ± 0.055 | 1.12 ± 0.055 | 1.13 ± 0.056 | 1.16 ± 0.058 | 1.17 ± 0.059 | 1.23 ± 0.062 | 1.25 ± 0.063
